In US6528532B1, “Urea derivatives as HIV aspartyl protease inhibitors” (Pharmacor Inc., priority 2002, dated 2003):

Experiments:
HIV protease = HIV protease (Human immunodeficiency virus type 1 group M subtype B, UniProt P04585); assay: Enzymatic (FRET fluorometric) assay for determining the inhibition constant (Ki) of compounds targeting the HIV protease; type: biochemical; conditions: Ki, FRET substrate (EDANS/DABCYL), equation of Henderson
From the text: Enzymatic Assay for Determining the Inhibition Constant (Ki) of Synthetic Compounds Targeting the HIV Protease
This is a fluorometric assay based on the cleavage by protease of a substrate carrying a donor group (EDANS) and an acceptor group (DABCYL) on each side of the cleavage site, interacting together through fluorescence resonance energy transfer (FRET) as described by Matayoshi et al. (Science 247:[…], 1990).
After calculation of Vo and Vi, the inhibition constant (Ki) of the compound is determined using the equation of Henderson: [formula]
where Vo=the enzyme's initial velocity
Vi=the enzyme velocity in the presence of the inhibitory compound,
[I]=inhibitor concentration, [S]=substrate concentration,
Km=Michaelis-Menten constant and Kiapp=apparent Ki
Graphs are traced and the Ki determined using GraphPad Prism software v. 3.0.

in vitro = type: cell-based; conditions: human
Procedure: To evaluate the EC50 of our compounds, various drug concentrations are incubated with the infected cell for six days and then the metabolic activity of the cells is monitored by the MTT assay. (See A. J. Japour et al, Antimicrobial Agents and Chemotherapy, 37, 1095-1101, 1993 and R. Pauwels et al. Journal of Virological Methods, 20, 309-321, 1988).
We use the laboratory viral strain NL4.3 as wild type virus and the cell line used is MT-4 which is a T-cell line highly sensitive to HIV-1. We also use some WT clinical strains. To address the resistance issue we assay the inhibitors with NL4.3 mutants which are designed to be resistant to specific commercially available inhibitors.
The same MTT assay is used to evaluate the CCIC50 (cell culture IC50) of our compounds except that the virus is omitted.

Compound	Ki (HIV protease) [µM]	IC50 at 6 days (in vitro) [µM]
Cc1ccc(S(=O)(=O)N(CC(C)C)[C@H](CO)CCCCNC(=O)N(Cc2ccccc2)Cc2ccccc2[N+](=O)[O-])cc1 [Example 59, (2S) 2-N-Isobutyl-2-N-(4-methylbenzenesulfonyl)-6-N-[N′-benzyl-N′-(2-nitrobenzyl)aminocarbonyl]-2,6-diaminohexanol]	0.0017	4.6
Cc1ccc(S(=O)(=O)N(CC(C)C)[C@H](CO)CCCCNC(=O)N(Cc2ccccc2)Cc2cccc([N+](=O)[O-])c2)cc1 [Example 60, (2S) 2-N-Isobutyl-2-N-(4-methylbenzenesulfonyl)-6-N-[N′-benzyl-N′-(3-nitrobenzyl)aminocarbonyl]-2,6-diaminohexanol]	0.006	4.6
Cc1ccc(S(=O)(=O)N(CC(C)C)[C@H](CO)CCCCNC(=O)N(Cc2ccccc2)Cc2ccc([N+](=O)[O-])cc2)cc1 [Example 61, (2S) 2-N-Isobutyl-2-N-(4-methylbenzenesulfonyl)-6-N-[N′-benzyl-N′-(4-nitrobenzyl)aminocarbonyl]-2,6-diaminohexanol]	0.009	5.1
CC(C)CN([C@H](CO)CCCCNC(=O)N(Cc1ccc(F)cc1)Cc1ccc2c(c1)OCO2)S(=O)(=O)c1ccc(N)cc1 [Example 67, (2S) 2-N-(4-Aminobenzenesulfonyl)-2-N-isobutyl-6-N-[N′-(4-fluorobenzyl)-N′-piperonylaminocarbonyl]-2,6-diaminohexanol]	0.002	11
CC(C)CN([C@H](CO)CCCCNC(=O)N(Cc1ccccc1)Cc1ccc2c(c1)OCO2)S(=O)(=O)c1ccc(N)cc1 [Example 82, (2S) 2-N-(4-Aminobenzenesulfonyl)-2-N-isobutyl-6-N-(N′-benzyl-N′-piperonylaminocarbonyl)-2,6-diaminohexanol]	0.0026	12.5
CC(C)CN([C@H](CO)CCCCNC(=O)N(Cc1ccc2c(c1)OCO2)Cc1ccc2c(c1)OCO2)S(=O)(=O)c1ccc(N)cc1 [Example 85, (2S) 2-N-(4-Aminobenzenesulfonyl)-2-N-isobutyl-6-N-(N′,N′-dipiperonylaminocarbonyl)-2,6-diaminohexanol]	0.0017	13.1
COc1cc(CN(Cc2ccc3c(c2)OCO3)C(=S)NCCCC[C@@H](CO)N(CCC(C)C)S(=O)(=O)c2ccc(N)cc2)cc(OC)c1OC [Example 107, (2S) 2-N-(4-Aminobenzenesulfonyl)-2-N-(3-methylbutyl)-6-N-[N′-(3,4,5-trimethoxybenzyl)-N′-piperonylaminothiocarbonyl]-2,6-diaminohexanol]	–	10.7
